Test results published in ChEMBL document CHEMBL4308908, “Lamellarin-inspired potent topoisomerase I inhibitors with the unprecedented benzo[g][1]benzopyrano[4,3-b]indol-6(13H)-one scaffold” (Bioorg Med Chem, 2019).
Activity calls are given as the source filed them. The calls are words filed in the database; no cut-off is given here.

Tests used:
[1] = molecular target: T1, DNA topoisomerase I (Bos taurus) (UniProt F1MN93); assay: Inhibition of calf thymus DNA topoisomerase 1 assessed as reduction in enzyme-mediated relaxation of supercoiled pBR322 plasmid DNA at 10 uM after 30 mins by agarose gel electrophoresis
T1 sequence (whole entry): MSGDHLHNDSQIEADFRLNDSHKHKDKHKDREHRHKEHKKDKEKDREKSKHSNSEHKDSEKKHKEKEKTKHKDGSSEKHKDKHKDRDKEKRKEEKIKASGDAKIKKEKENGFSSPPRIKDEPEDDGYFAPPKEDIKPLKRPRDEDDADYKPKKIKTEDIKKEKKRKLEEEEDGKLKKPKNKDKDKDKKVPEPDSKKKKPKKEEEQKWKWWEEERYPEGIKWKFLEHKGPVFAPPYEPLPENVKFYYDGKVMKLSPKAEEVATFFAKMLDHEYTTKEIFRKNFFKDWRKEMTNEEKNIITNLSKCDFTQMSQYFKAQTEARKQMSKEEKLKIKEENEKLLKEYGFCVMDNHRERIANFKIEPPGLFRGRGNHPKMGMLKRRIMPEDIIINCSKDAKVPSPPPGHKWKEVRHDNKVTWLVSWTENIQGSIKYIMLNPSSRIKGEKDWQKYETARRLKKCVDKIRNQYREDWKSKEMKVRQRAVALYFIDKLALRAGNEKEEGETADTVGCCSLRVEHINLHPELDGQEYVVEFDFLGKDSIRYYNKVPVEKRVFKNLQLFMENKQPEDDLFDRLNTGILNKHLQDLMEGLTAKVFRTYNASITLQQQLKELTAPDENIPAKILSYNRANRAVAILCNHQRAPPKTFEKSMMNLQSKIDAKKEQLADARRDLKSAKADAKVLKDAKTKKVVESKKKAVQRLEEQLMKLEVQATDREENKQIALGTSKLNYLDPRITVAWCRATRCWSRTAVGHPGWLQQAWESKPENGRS

[2] = molecular target: T1, DNA topoisomerase I (Bos taurus); assay: Inhibition of calf thymus DNA topoisomerase 1 assessed as reduction in enzyme-mediated relaxation of supercoiled pBR322 plasmid DNA at 10 uM after 30 mins by ethidium bromide staining-based agarose gel electrophoresis
MCF7 = assay: Antiproliferative activity against human MCF7 cells after 48 hrs by SRB assay; type: functional; conditions: MCF7, 48 h, read-out: GI50
U-251 = assay: Antiproliferative activity against human U251 cells after 48 hrs by SRB assay; type: functional; conditions: U-251, 48 h, read-out: GI50
HCT-116 = assay: Antiproliferative activity against human HCT116 cells after 48 hrs by SRB assay; type: functional; conditions: HCT-116, 48 h, read-out: GI50
NCI-H522 = assay: Antiproliferative activity against human NCI-H522 cells after 48 hrs by SRB assay; type: functional; conditions: NCI-H522, 48 h, read-out: GI50
LOX IMVI = assay: Antiproliferative activity against human LOXIMVI cells after 48 hrs by SRB assay; type: functional; conditions: read-out: GI50
SK-OV-3 = assay: Antiproliferative activity against human SKOV3 cells after 48 hrs by SRB assay; type: functional; conditions: SK-OV-3, 48 h, read-out: GI50
ACHN = assay: Antiproliferative activity against human ACHN cells after 48 hrs by SRB assay; type: functional; conditions: read-out: GI50
MKN-28 = assay: Antiproliferative activity against human MKN28 cells after 48 hrs by SRB assay; type: functional; conditions: MKN-28, 48 h, read-out: GI50
DU-145 = assay: Antiproliferative activity against human DU145 cells after 48 hrs by SRB assay; type: functional; conditions: DU-145, 48 h, read-out: GI50
Colon 26 = assay: Antitumor activity against mouse Colon 26 cells implanted in BALB/c mouse at 50 mg/kg, iv administered every 2 days for 7 times starting 1 day after tumor implantation and measured daily until day 20; type: functional, organism-based

Row | SMILES | inhibition [1] | inhibition [2] | GI50 (MCF7) [nM] | GI50 (U-251) [nM] | GI50 (HCT-116) [nM] | GI50 (NCI-H522) [nM] | GI50 (LOX IMVI) [nM] | GI50 (SK-OV-3) [nM] | GI50 (ACHN) [nM] | GI50 (MKN-28) [nM] | GI50 (DU-145) [nM] | Activity (Colon 26)
1 | CC[C@@]1(O)C(=O)OCc2c1cc1n(c2=O)Cc2cc3ccccc3nc2-1 | Active | Active | – | – | – | – | – | – | – | – | – | –
2 | COc1cc2c(cc1O)oc(=O)c1c2c(C=O)c2c3cc(OC)c(O)cc3ccn21 | – | – | 37 | 29 | 78 | 21 | 35 | 230 | 26 | 230 | 28 | –
3 | CCn1c2c3cc(OC)c(O)cc3ccc2c2c(=O)oc3cc(O)c(OC)cc3c21 | – | – | < 10 | < 10 | < 10 | < 10 | < 10 | < 10 | < 10 | < 10 | < 10 | –
4 | COc1cc2c(ccc3c2[nH]c2c4cc(OC)c(O)cc4oc(=O)c32)cc1O | Active | Active | 68 | < 10 | 88 | < 10 | 21 | 330 | 110 | 1600 | 51 | –
5 | COc1cc2c(cc1O)oc(=O)c1c2cc2c3cc(OC)c(O)cc3ccn21 | – | – | 76 | 27 | 33 | < 10 | 20 | 83 | 14 | 84 | 20 | –
6 | C#CCn1c2c3cc(OC)c(O)cc3ccc2c2c(=O)oc3cc(O)c(OC)cc3c21 | – | – | 18 | < 10 | 34 | < 10 | < 10 | 56 | < 10 | 66 | 27 | –
7 | COc1cc2c(cc1O)oc(=O)c1c2c(Br)c2c3cc(OC)c(O)cc3ccn21 | – | – | 41 | 29 | 67 | 14 | 25 | 500 | 15 | 560 | 28 | –
8 | CCc1c2c(nc3ccc(O)cc13)-c1cc3c(c(=O)n1C2)COC(=O)[C@]3(O)CC [7-ETHYL-10-HYDROXYCAMPTOTHECIN] | – | – | 3 | 2.8 | 23 | 3.7 | 5.3 | 23 | 5.9 | 110 | 4.3 | –
9 | COc1cc2c(cc1O)oc(=O)c1c2c(F)c2c3cc(OC)c(O)cc3ccn21 | – | – | 110 | 71 | 120 | < 10 | 24 | 470 | 28 | 360 | 24 | –
10 | COc1cc(-c2c3c4cc(OC)c(O)cc4oc(=O)c3n3ccc4cc(O)c(OC)cc4c23)ccc1O [LAMELLARIN D] | Active | Active | < 10 | < 10 | < 10 | < 10 | < 10 | 38 | < 10 | 50 | < 10 | –
11 | CCc1c2c(nc3ccc(OC(=O)N4CCC(N5CCCCC5)CC4)cc13)-c1cc3c(c(=O)n1C2)COC(=O)[C@]3(O)CC | – | – | – | – | – | – | – | – | – | – | – | Active
12 | C=CCn1c2c3cc(OC)c(O)cc3ccc2c2c(=O)oc3cc(O)c(OC)cc3c21 | – | – | 14 | 7.6 | 25 | 9.5 | 6.4 | 29 | 4.2 | 82 | 6.5 | –
13 | COc1cc2c(ccc3c4c(=O)oc5cc(O)c(OC)cc5c4n(CCN(C)C)c23)cc1O | Active | Active | 2.6 | 4 | 9.7 | 3.9 | 2.7 | 26 | 1.9 | 67 | 2 | –
14 | COc1cc2c(cc1O)oc(=O)c1c2c(CN(C)C)c2c3cc(OC)c(O)cc3ccn21 | – | – | 55 | 100 | 310 | 82 | 180 | 1600 | 44 | 2300 | 110 | –
15 | COc1cc2c(cc1O)oc(=O)c1c2c(Cl)c2c3cc(OC)c(O)cc3ccn21 | – | – | 13 | < 10 | 37 | < 10 | < 10 | 250 | < 10 | 130 | < 10 | –
16 | COc1cc2c(cc1O)oc(=O)c1c2c(C)c2c3cc(OC)c(O)cc3ccn21 | – | – | 110 | 9.1 | 33 | 4.7 | 5.5 | 38 | 3.8 | 64 | 4.7 | –
